We go through five molecules from PubChem BioAssay AID1745844 (Carcinogenic Potency Database (CPDB), 2022).

This data set relates to rodent lifetime carcinogenesis bioassay, tumor incidence TD50. The data set is described as follows: carcinogenic potency in animals, long-term in vivo studies, CPDB compilation (AID 1745844).

Each structure is given as a SMILES string. Active and inactive are the calls of the source. How the calls were made is not given here.

On to `O=[N+]([O-])c1cc(N(CCO)CCO)ccc1NCCO`, for which the TD50 is, setting by setting: (mouse, strain B6C3F1, females, in feed, site: any site (literature study), lesion: several types, types named in the paper, dosed 104 weeks, study length 105 weeks) 42000 mg/kg/day (inactive); (mouse, strain B6C3F1, females, in feed, site: liver, lesion: hepatocellular adenoma + hepatocellular carcinoma + neoplastic nodule, dosed 104 weeks, study length 105 weeks) 19000 mg/kg/day; (mouse, strain B6C3F1, males, in feed, site: all sites, lesion: malignant lymphoma, histiocytic type + malignant lymphoma, mixed type + malignant lymphoma, lymphocytic type, dosed 104 weeks, study length 105 weeks) 4040 mg/kg/day; (mouse, strain B6C3F1, males, in feed, site: all sites, lesion: malignant lymphoma, lymphocytic type, dosed 104 weeks, study length 105 weeks) 5450 mg/kg/day; (mouse, strain B6C3F1, males, in feed, site: any site (literature study), lesion: several types, types named in the paper, dosed 104 weeks, study length 105 weeks) 5020 mg/kg/day; (mouse, strain B6C3F1, males, in feed, site: liver, lesion: hepatocellular adenoma + hepatocellular carcinoma + neoplastic nodule, dosed 104 weeks, study length 105 weeks) 6550 mg/kg/day. Further, the TD50 is 970 mg/kg/day (inactive) (mouse, strain B6C3F1, males, in feed, site: skin + subcutaneous tissue, lesion: fibrosarcoma + fibroma, dosed 104 weeks, study length 105 weeks); 3.13e+06 mg/kg/day (rat, strain Fischer 344, females, in feed, site: any site (literature study), lesion: several types, types named in the paper, dosed 103 weeks, study length 104 weeks); 8150 mg/kg/day (rat, strain Fischer 344, females, in feed, site: liver, lesion: hepatocellular adenoma + hepatocellular carcinoma + neoplastic nodule, dosed 103 weeks, study length 104 weeks); 8150 mg/kg/day (inactive) (rat, strain Fischer 344, females, in feed, site: liver, lesion: hepatocellular carcinoma + neoplastic nodule, dosed 103 weeks, study length 104 weeks); 20300 mg/kg/day (rat, strain Fischer 344, males, in feed, site: liver, lesion: hepatocellular adenoma + hepatocellular carcinoma + neoplastic nodule, dosed 103 weeks, study length 104 weeks); 1990 mg/kg/day (inactive) (rat, strain Fischer 344, males, in feed, site: thyroid gland, lesion: c-cell carcinoma, dosed 103 weeks, study length 104 weeks).
For `Cc1ccc2c(c1[N+](=O)[O-])C(=O)c1ccccc1C2=O`, the TD50 is 1.76 mg/kg/day (mouse, strain B6C3F1, females, in feed, site: any site (literature study), lesion: several types, types named in the paper, dosed 49 weeks, study length 49 weeks); 97.3 mg/kg/day (mouse, strain B6C3F1, females, in feed, site: lung, lesion: alveolar/bronchiolar adenoma + alveolar/bronchiolar carcinoma, dosed 49 weeks, study length 49 weeks); 1.88 mg/kg/day (mouse, strain B6C3F1, females, in feed, site: subcutaneous tissue, lesion: hemangiosarcoma, dosed 49 weeks, study length 49 weeks); 1.02 mg/kg/day (mouse, strain B6C3F1, males, in feed, site: any site (literature study), lesion: several types, types named in the paper, dosed 46 weeks, study length 46 weeks); 45.5 mg/kg/day (mouse, strain B6C3F1, males, in feed, site: lung, lesion: alveolar/bronchiolar adenoma + alveolar/bronchiolar carcinoma, dosed 46 weeks, study length 46 weeks); 1.34 mg/kg/day (mouse, strain B6C3F1, males, in feed, site: subcutaneous tissue, lesion: hemangiosarcoma, dosed 46 weeks, study length 46 weeks). In addition, the TD50 (rat, strain Fischer 344, females, in feed, site: any site (literature study), lesion: several types, types named in the paper, dosed 78 weeks, study length 109 weeks) stood at 47.1 mg/kg/day; the TD50 (rat, strain Fischer 344, females, in feed, site: liver, lesion: hepatocellular adenoma + hepatocellular carcinoma + neoplastic nodule, dosed 78 weeks, study length 109 weeks) is 324 mg/kg/day; the TD50 (rat, strain Fischer 344, females, in feed, site: liver, lesion: hepatocellular carcinoma + neoplastic nodule, dosed 78 weeks, study length 109 weeks) was 324 mg/kg/day; the TD50 (rat, strain Fischer 344, females, in feed, site: liver, lesion: hepatocellular carcinoma, dosed 78 weeks, study length 109 weeks) was 547 mg/kg/day; the TD50 (rat, strain Fischer 344, females, in feed, site: pituitary gland, lesion: adenoma, dosed 78 weeks, study length 109 weeks) stood at 63.4 mg/kg/day; the TD50 (rat, strain Fischer 344, females, in feed, site: stomach, lesion: squamous-cell carcinoma, dosed 78 weeks, study length 109 weeks) was 507 mg/kg/day. Further, the TD50 is 131 mg/kg/day (rat, strain Fischer 344, females, in feed, site: subcutaneous tissue, lesion: fibroma, dosed 78 weeks, study length 109 weeks); 224 mg/kg/day (rat, strain Fischer 344, females, in feed, site: urinary bladder, lesion: papilloma, NOS + sarcoma, NOS + transitional-cell papilloma, dosed 78 weeks, study length 109 weeks); 31.9 mg/kg/day (rat, strain Fischer 344, males, in feed, site: any site (literature study), lesion: several types, types named in the paper, dosed 78 weeks, study length 109 weeks); 48.8 mg/kg/day (rat, strain Fischer 344, males, in feed, site: liver, lesion: hepatocellular adenoma + hepatocellular carcinoma + neoplastic nodule, dosed 78 weeks, study length 109 weeks); 48.8 mg/kg/day (rat, strain Fischer 344, males, in feed, site: liver, lesion: hepatocellular carcinoma + neoplastic nodule, dosed 78 weeks, study length 109 weeks); 89.2 mg/kg/day (rat, strain Fischer 344, males, in feed, site: liver, lesion: hepatocellular carcinoma, dosed 78 weeks, study length 109 weeks). The TD50 reads like this: (rat, strain Fischer 344, males, in feed, site: liver, lesion: neoplastic nodule, dosed 78 weeks, study length 109 weeks) 133 mg/kg/day; (rat, strain Fischer 344, males, in feed, site: subcutaneous tissue, lesion: fibroma, dosed 78 weeks, study length 109 weeks) 25.8 mg/kg/day.
As to `Nc1cc([N+](=O)[O-])ccc1C(=O)O`, the carcinogen call by setting is: (mouse, strain B6C3F1, females, in feed, site: any site (literature study), lesion: several types, types named in the paper, dosed 78 weeks, study length 93 weeks) “negative (inactive)”; (rat, strain Fischer 344, females, in feed, site: any site (literature study), lesion: several types, types named in the paper, dosed 78 weeks, study length 105 weeks) “negative (inactive)”; (rat, strain Fischer 344, males, in feed, site: any site (literature study), lesion: several types, types named in the paper, dosed 78 weeks, study length 105 weeks) “negative (inactive)”. For the same molecule, the TD50 by setting is: (mouse, strain B6C3F1, females, in feed, site: lung, lesion: alveolar/bronchiolar adenoma + alveolar/bronchiolar carcinoma, dosed 78 weeks, study length 93 weeks) 2560 mg/kg/day; (mouse, strain B6C3F1, males, in feed, site: all sites, lesion: hemangioma + hemangiosarcoma, dosed 78 weeks, study length 93 weeks) 12600 mg/kg/day (inactive); (mouse, strain B6C3F1, males, in feed, site: any site (literature study), lesion: several types, types named in the paper, dosed 78 weeks, study length 93 weeks) 1660 mg/kg/day; (rat, strain Fischer 344, females, in feed, site: liver, lesion: hepatocellular adenoma + hepatocellular carcinoma + neoplastic nodule, dosed 78 weeks, study length 105 weeks) 11800 mg/kg/day; (rat, strain Fischer 344, males, in feed, site: liver, lesion: hepatocellular adenoma + hepatocellular carcinoma + neoplastic nodule, dosed 78 weeks, study length 105 weeks) 3710 mg/kg/day.
Regarding `CC(=O)CN(N=O)C(N)=O`, the TD50 is, setting by setting: (hamster, strain Syrian Golden, females, by gavage, site: spleen, lesion: all vascular tumors, dosed 40 weeks, study length 55 weeks) 0.121 mg/kg/day; (hamster, strain Syrian Golden, males, by gavage, site: spleen, lesion: hemangiosarcoma, dosed 40 weeks, study length 75 weeks) 0.14 mg/kg/day; (rat, strain Fischer 344, females, by gavage, site: kidney, lesion: mesenchymal neoplasm, dosed 30 weeks, study length 104 weeks) 0.32 mg/kg/day; (rat, strain Fischer 344, females, by gavage, site: liver, lesion: one or several types, types not named, dosed 30 weeks, study length 104 weeks) 4.04 mg/kg/day; (rat, strain Fischer 344, males, by gavage, site: kidney, lesion: mesenchymal neoplasm, dosed 30 weeks, study length 104 weeks) 0.456 mg/kg/day.
`NNc1nc(-c2ccc([N+](=O)[O-])cc2)cs1`: the TD50 reads like this: (mouse, strain Swiss, females, in feed, site: all sites, lesion: lymphocytic leukemia, dosed 46 weeks, study length 66 weeks) 10.6 mg/kg/day; (mouse, strain Swiss, females, in feed, site: any site (literature study), lesion: several types, types named in the paper, dosed 46 weeks, study length 66 weeks) 8.33 mg/kg/day; (mouse, strain Swiss, females, in feed, site: lung, lesion: alveolar-cell carcinoma, dosed 46 weeks, study length 66 weeks) 25 mg/kg/day; (rat, strain Sprague-Dawley, females, in feed, site: any site (literature study), lesion: several types, types named in the paper, dosed 46 weeks, study length 75 weeks) 0.743 mg/kg/day; (rat, strain Sprague-Dawley, females, in feed, site: forestomach, lesion: squamous-cell papilloma, dosed 46 weeks, study length 75 weeks) 9 mg/kg/day; (rat, strain Sprague-Dawley, females, in feed, site: mammary gland, lesion: adenocarcinoma, dosed 45 weeks, study length 52 weeks) 9.51 mg/kg/day. Also, the TD50 reads like this: (rat, strain Sprague-Dawley, females, in feed, site: mammary gland, lesion: adenocarcinoma, dosed 46 weeks, study length 75 weeks) 3.78 mg/kg/day; (rat, strain Sprague-Dawley, females, in feed, site: mammary gland, lesion: several types, types named in the paper, dosed 45 weeks, study length 52 weeks) 8.66 mg/kg/day; (rat, strain Sprague-Dawley, females, in feed, site: mammary gland, lesion: several types, types named in the paper, dosed 46 weeks, study length 75 weeks) 1.97 mg/kg/day; (rat, strain Sprague-Dawley, females, in feed, site: salivary gland, lesion: adenocarcinoma, dosed 45 weeks, study length 52 weeks) 21.7 mg/kg/day.
